Measurements as given in patent US6548543B1, “Remedies or preventives containing cyclopentenone compounds as the active ingredient” (Takara Shuzo Co., Ltd., priority 1998, dated 2003).

What was measured:
[1] = molecular target: T1, topoisomerase I (Homo sapiens, UniProt P11387); experiment: Topoisomerase I inhibition, pBR322 DNA relaxation; assay type: biochemical; conditions: 37° C., 30 minutes
T1 construct: purchased TopoGEN
T1 sequence (P11387 1-765): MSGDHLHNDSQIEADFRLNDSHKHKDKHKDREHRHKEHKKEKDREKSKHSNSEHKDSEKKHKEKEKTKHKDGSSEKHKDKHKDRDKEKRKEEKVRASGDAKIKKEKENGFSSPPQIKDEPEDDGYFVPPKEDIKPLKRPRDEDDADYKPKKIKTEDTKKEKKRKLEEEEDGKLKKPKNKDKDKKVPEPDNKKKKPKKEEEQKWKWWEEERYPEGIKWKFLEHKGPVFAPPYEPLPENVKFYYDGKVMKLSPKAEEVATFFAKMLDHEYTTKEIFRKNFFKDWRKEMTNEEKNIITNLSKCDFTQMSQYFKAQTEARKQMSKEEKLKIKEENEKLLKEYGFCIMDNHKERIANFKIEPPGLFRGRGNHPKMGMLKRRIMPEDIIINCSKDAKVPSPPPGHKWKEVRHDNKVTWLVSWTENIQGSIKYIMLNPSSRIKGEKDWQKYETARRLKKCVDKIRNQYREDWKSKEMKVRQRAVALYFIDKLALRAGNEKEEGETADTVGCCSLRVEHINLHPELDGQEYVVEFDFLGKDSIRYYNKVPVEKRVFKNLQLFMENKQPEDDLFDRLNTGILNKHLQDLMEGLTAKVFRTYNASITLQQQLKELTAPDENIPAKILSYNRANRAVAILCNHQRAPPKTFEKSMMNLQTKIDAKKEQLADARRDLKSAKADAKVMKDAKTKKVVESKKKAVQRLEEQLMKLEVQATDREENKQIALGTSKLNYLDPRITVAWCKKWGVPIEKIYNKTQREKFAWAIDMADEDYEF
Experimental: (1) 2 μl of topoisomerase II (TopoGEN; 2 units/μl), 2 μl of 10-fold concentrated buffer [0.5 M Tris-HCl (pH 8.0), 1.2 M KCl, 0.1 M MgCl2, 2.5 mM adenosine triphosphate, 5 mM dithiothreitol], 2 μl of 0.1% bovine serum albumin (Takara Shuzo), 11 μl of distilled water and 2 μl of distilled water (control) or 2 μl of one of aqueous solutions of dipropionylcyclopentenone, diisobutyrylcyclopentenone, dibenzoylcyclopentenone, dihexanoylcyclopentenone, di-2-hexenoylcyclopentenone, dimethoxyacetylcyclopentenone, dimethylfumarylcyclopentenone or dimethylmaleylcyclopentenone at varying concentrations were mixed together. 1 μl of 0.25 μg/μl pBR322 DNA (Takara Shuzo) was added thereto. The resulting mixture was reacted at 37° C. After reacting for 30 minutes, 2 μl of an aqueous solution containing 1% sodium dodecyl sulfate, 50% glycerol and 0.02% Bromophenol Blue was added thereto to stop the reaction. […]
(2) The activity of inhibiting topoisomerase I of each of the cyclopentenone derivatives was determined as described in Example 3-(1) except that topoisomerase I (TopoGEN; 0.01 unit/μl) was used in place of topoisomerase II and a solution containing 100 mM Tris-HCl (pH 7.9), 10 mM EDTA, 1 mM spermidine and 50% glycerol was used as 10-fold concentrated buffer.

[2] = Single oral dose toxicity; assay type: in vivo; conditions: mouse, oral, single dosage of 100 mg/kg
Experimental: No toxicity is observed when a physiologically effective amount of the cyclopentenone derivative or an optical isomer thereof, or a salt thereof obtained according to the present invention is administered.

[3] = test system: λ-carrageenan pedal edema; experiment: Carrageenan induced pedal edema; assay type: in vivo, Lewis rats; conditions: rat, 3 hours after carrageenan
Experimental: Lewis rats (male, 9 weeks old, weighing about 250 g) were purchased from Seac Yoshitomi.
Rats were fasted from 18 hours before the start of the experiments. Dipropionylcyclopentenone, dihexanoylcyclopentenone, di-2-hexenoylcyclopentenone, diisobutyrylcyclopentenone or dibenzoylcyclopentenone dissolved in olive oil (Nacalai Tesque) was orally administered to 4 rats per group at 1 or 10 mg/10 ml/kg.
100 μl of 1% λ-carrageenan (Wako Pure Chemical Industries) suspension in saline (Otsuka Pharmaceutical) was injected into the sole of right paw of a rat 0.5 hour after the administration of test substance to induce pedal edema. The volume of the right foot of the rat was measured using an instrument for measuring pedal volume (Ugo Basile) 3 hours after the injection with carrageenan. The measurements were expressed as the rate of increase calculated based on the volume of the right foot of each rat measured before the administration with carrageenan.
FIG. 5 illustrate the relationship between the amount of cyclopentenone derivative administered and the rate of increase in edema in foot. The horizontal axis represents the dose […] and the vertical axis represents the rate of increase (%).

[4] = test system: HSP70; conditions: cited from earlier work

Structure (SMILES) | Concentration at which change of DNA from superhelical type to relaxed type was partially or completely inhibited [1] [µM] | Death after single oral administration [2] | Suppression of edema in foot (FIG. 5) ([3]; 1 mg/kg oral) | Suppression of edema in foot (FIG. 5) ([3]; 10 mg/kg oral) | Concentration required for inducing HSP70 [4]
O=C(OC1C=CC(=O)C1OC(=O)c1ccccc1)c1ccccc1 (centres unmarked) | ≥ 50 | no death was observed | Tendency of suppression | significant suppression | –
O=C1C=CCC1 [2-cyclopenten-1-one] | – | – | – | – | several hundred
